Patent US12655116B2, “Substituted isophthalic acid diamides” (Bayer Aktiengesellschaft, priority 2020, dated 2026)

Key:
[1] = system: SETVI; test: Pre-emergence herbicidal action against SETVI; format: in vivo, Setaria viridis
Method in brief: (§1)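 Pre-emergence soil-surface spray of formulated compound (WP or EC; 600 to 800 l/ha; 0.2% wetting agent) over seeds sown in sandy loam. After 3 weeks under greenhouse conditions, damage is estimated visually in percent against untreated plants.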

[2] = system: SETVI; test: Post-emergence herbicidal action against SETVI; format: in vivo, Setaria viridis; conditions: dosage 20 g/ha
Method in brief: (§2)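 Greenhouse plants in sandy loam were sprayed at the one-leaf stage, 2 to 3 weeks after sowing, with WP or EC formulations as aqueous suspension or emulsion (600 to 800 l/ha water, 0.2% wetting agent). Visual damage was scored about 3 weeks later versus untreated controls, 0% = like control, 100% = dead.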

[3] = system: PHBPU; test: Post-emergence herbicidal action against PHBPU; format: in vivo, Pharbitis purpurea
Method in brief: as §2

[4] = system: ECHCG; test: Post-emergence herbicidal action against ECHCG; format: in vivo, Echinochloa crus-galli
Method in brief: as §2

[5] = system: DIGSA; test: Post-emergence herbicidal action against DIGSA; format: in vivo, Digitaria sanguinalis
Method in brief: as §2

[6] = system: VIOTR; test: Pre-emergence herbicidal action against VIOTR; format: in vivo, Viola tricolor
Method in brief: as §1

[7] = system: AMARE; test: Pre-emergence herbicidal action against AMARE; format: in vivo, Amaranthus retroflexus
Method in brief: as §1

[8] = system: PHBPU; test: Pre-emergence herbicidal action against PHBPU; format: in vivo, Pharbitis purpurea; conditions: dosage 80 g/ha
Method in brief: as §1

[9] = system: ECHCG; test: Pre-emergence herbicidal action against ECHCG; format: in vivo, Echinochloa crus-galli; conditions: 80 g/ha
Method in brief: as §1

[10] = system: ALOMY; test: Post-emergence herbicidal action against ALOMY; format: in vivo, Alopecurus myosuroides; conditions: dosage 20 g/ha, visual assessment about 3 weeks after treatment vs untreated controls
Method in brief: as §2

[11] = system: ABUTH; test: Pre-emergence herbicidal action against ABUTH; format: in vivo, Abutilon theophrasti
Method in brief: as §1

[12] = system: AMARE; test: Post-emergence herbicidal action against AMARE; format: in vivo, Amaranthus retroflexus; conditions: 20 g/ha, visual assessment about 3 weeks after treatment, 100% = plants have died, 0% = like control plants
Method in brief: as §2

[13] = system: DIGSA; test: Pre-emergence herbicidal action against DIGSA; format: in vivo, Digitaria sanguinalis
Method in brief: as §1

[14] = system: ABUTH; test: Post-emergence herbicidal action against ABUTH; format: in vivo, Abutilon theophrasti; conditions: visual assessment about 3 weeks after treatment vs untreated controls
Method in brief: as §2

[15] = system: ALOMY; test: Pre-emergence herbicidal action against ALOMY; format: in vivo, Alopecurus myosuroides; conditions: pre-emergence
Method in brief: as §1

[16] = system: MATIN; test: Pre-emergence herbicidal action against MATIN; format: in vivo, Matricaria inodora
Method in brief: as §1

[17] = system: VERPE; test: Post-emergence herbicidal action against VERPE; format: in vivo, Veronica persica
Method in brief: as §2

[18] = system: VIOTR; test: Post-emergence herbicidal action against VIOTR; format: in vivo, Viola tricolor
Method in brief: as §2

[19] = system: AVEFA; test: Pre-emergence herbicidal action against AVEFA; format: in vivo, Avena fatua; conditions: Avena fatua, 504 h; 80 g/ha, pre-emergence
Method in brief: as §1

[20] = system: VERPE; test: Pre-emergence herbicidal action against VERPE; format: in vivo, Veronica persica
Method in brief: as §1

[21] = system: MATIN; test: Post-emergence herbicidal action against MATIN; format: in vivo, Matricaria inodora
Method in brief: as §2

[22] = 20 g/ha, scored visually after 3 weeks vs untreated controls, 100% = plants have died, 0% = like control plants
[23] = 80 g/ha, scored visually after 3 weeks vs untreated controls (100% = plants have died, 0% = like control plants)

Q: COCCNC(=O)c1c(C(F)F)ccc(C(=O)Nc2nnnn2C)c1Cl [Example 1-156] was tested. Which “Pre-emergence action against SETVI in %” value ([1]; dosage 80 g/ha) did it give?
A: 100%

Q: What about the “Post-emergence action against SETVI in %” value [2] of the same molecule?
A: 80%

Q: And the “Post-emergence action against PHBPU in %” value ([3]; dosage 20 g/ha)?
A: 90%

Q: What about the “Post-emergence action against ECHCG in %” value ([4]; dosage 5 g/ha) of the same molecule?
A: 80%

Q: And the “Post-emergence action against ECHCG in %” value ([4]; dosage 20 g/ha)?
A: 90%

Q: What about the “Post-emergence action against DIGSA” value ([5]; 20 g/ha) of the same molecule?
A: 90%

Q: What about the “Pre-emergence action against VIOTR in %” value ([6]; dosage 80 g/ha) of the same molecule?
A: 100%

Q: And the “Pre-emergence action against AMARE in %” value [7, 22]?
A: 100%

Q: And the “Pre-emergence action against AMARE in %” value [7, 23]?
A: 100%

Q: And the “Pre-emergence action against PHBPU in %” value [8]?
A: 80%

Q: What about the “Pre-emergence action against ECHCG in %” value [9] of the same molecule?
A: 100%

Q: What about the “Post-emergence action against ALOMY in %” value [10] of the same molecule?
A: 80%

Q: And the “Pre-emergence action against ABUTH (herbicidal activity)” value [11, 23]?
A: 100%

Q: And the “Post-emergence action at 20 g/ha against AMARE in %” value [12]?
A: 90%

Q: And the “Pre-emergence action against DIGSA in %” value ([13]; dosage 20 g/ha)?
A: 100%

Q: What about the “Pre-emergence action against DIGSA in %” value ([13]; dosage 80 g/ha) of the same molecule?
A: 100%

Q: And the “Post-emergence action against ABUTH in %” value ([14]; dosage 5 g/ha)?
A: 90%

Q: And the “Post-emergence action against ABUTH in %” value ([14]; dosage 20 g/ha)?
A: 90%

Q: What about the “Pre-emergence action against ALOMY (herbicidal activity)” value [15, 23] of the same molecule?
A: 90%

Q: And the “Pre-emergence action against MATIN in %” value ([16]; dosage 20 g/ha)?
A: 90%

Q: What about the “Pre-emergence action against MATIN in %” value ([16]; dosage 80 g/ha) of the same molecule?
A: 100%

Q: And the “Post-emergence action against VERPE in %” value ([17]; 20 g/ha)?
A: 80%

Q: CCn1nnnc1NC(=O)c1ccc(C(F)F)c(C(=O)NC2CC2)c1Br [Example 2-227] was tested. Which pest or weed control at 20 g/ha ([1]; Setaria viridis, 504 h, dosage 20 g/ha) did it give?
A: 100%

Q: What about the pest or weed control at 80 g/ha ([1]; Setaria viridis, 504 h, dosage 80 g/ha) of the same molecule?
A: 100%

Q: What about the pest or weed control at 20 g/ha ([4]; Echinochloa crus-galli, 504 h, dosage 20 g/ha) of the same molecule?
A: 80%

Q: What about the pest or weed control at 20 g/ha ([5]; Digitaria sanguinalis, 504 h, 20 g/ha) of the same molecule?
A: 100%

Q: And the pest or weed control at 20 g/ha ([6]; Viola tricolor, 504 h, dosage 20 g/ha)?
A: 100%

Q: What about the pest or weed control at 80 g/ha ([6]; Viola tricolor, 504 h, dosage 80 g/ha) of the same molecule?
A: 100%

Q: And the pest or weed control at 20 g/ha ([7]; Amaranthus retroflexus, 504 h, 20 g/ha, scored visually after 3 weeks vs untreated controls, 100% = plants have died, 0% = like control plants)?
A: 100%

Q: What about the pest or weed control at 80 g/ha ([7]; Amaranthus retroflexus, 504 h, 80 g/ha, scored visually after 3 weeks vs untreated controls, 100% = plants have died, 0% = like control plants) of the same molecule?
A: 100%

Q: And the pest or weed control at 80 g/ha ([8]; Ipomoea purpurea, 504 h)?
A: 90%

Q: And the pest or weed control at 5 g/ha ([18]; Viola tricolor, 504 h, 5 g/ha)?
A: 90%

Q: What about the pest or weed control at 20 g/ha ([18]; Viola tricolor, 504 h, 20 g/ha) of the same molecule?
A: 100%

Q: And the pest or weed control at 80 g/ha ([9]; Echinochloa crus-galli, 504 h)?
A: 100%

Q: And the pest or weed control at 80 g/ha ([11]; Abutilon theophrasti, 504 h, 80 g/ha, scored visually after 3 weeks vs untreated controls (100% = plants have died, 0% = like control plants))?
A: 100%

Q: What about the pest or weed control at 20 g/ha ([11]; Abutilon theophrasti, 504 h, dosage 20 g/ha, scored visually after 3 weeks vs untreated controls, 100% = plants have died, 0% = like control plants, read-out: Pre-emergence action against ABUTH (herbicidal activity in percent)) of the same molecule?
A: 100%

Q: And the pest or weed control at 20 g/ha ([12]; Amaranthus retroflexus, 504 h)?
A: 100%

Q: And the pest or weed control at 20 g/ha ([13]; Digitaria sanguinalis, 504 h, dosage 20 g/ha)?
A: 90%

Q: And the pest or weed control at 80 g/ha ([13]; Digitaria sanguinalis, 504 h, dosage 80 g/ha)?
A: 100%

Q: And the pest or weed control at 80 g/ha [19]?
A: 90%

Q: And the pest or weed control at 5 g/ha ([14]; Abutilon theophrasti, 504 h, dosage 5 g/ha)?
A: 100%

Q: And the pest or weed control at 20 g/ha ([14]; Abutilon theophrasti, 504 h, dosage 20 g/ha)?
A: 100%

Q: And the pest or weed control at 80 g/ha ([15]; Alopecurus myosuroides, 504 h, 80 g/ha, scored visually after 3 weeks vs untreated controls (100% = plants have died, 0% = like control plants))?
A: 100%

Q: What about the pest or weed control at 20 g/ha ([15]; Alopecurus myosuroides, 504 h, 20 g/ha, scored visually after 3 weeks, 100% = plants have died, 0% = like control plants) of the same molecule?
A: 80%

Q: And the pest or weed control at 20 g/ha ([16]; Tripleurospermum inodorum, 504 h, dosage 20 g/ha)?
A: 100%

Q: And the pest or weed control at 80 g/ha ([16]; Tripleurospermum inodorum, 504 h, dosage 80 g/ha)?
A: 100%

Q: And the pest or weed control at 20 g/ha ([17]; Veronica persica, 504 h, 20 g/ha)?
A: 80%

Q: And the pest or weed control at 80 g/ha ([20]; Veronica persica, 504 h, dosage 80 g/ha)?
A: 100%

Q: For CCn1nnnc1NC(=O)c1ccc(C(F)(F)F)c(C(=O)NC)c1C1CC1 [Example 2-286], which “Post-emergence action against MATIN in %” value ([21]; dosage 5 g/ha) is on record?
A: 90%

Q: And the “Post-emergence action against MATIN in %” value ([21]; dosage 20 g/ha)?
A: 90%

Q: What about the “Pre-emergence action against SETVI in %” value ([1]; dosage 20 g/ha) of the same molecule?
A: 80%

Q: What about the “Pre-emergence action against SETVI in %” value ([1]; dosage 80 g/ha) of the same molecule?
A: 100%

Q: And the “Post-emergence action against SETVI in %” value [2]?
A: 80%

Q: And the “Post-emergence action against PHBPU in %” value ([3]; dosage 5 g/ha)?
A: 90%

Q: What about the “Post-emergence action against PHBPU in %” value ([3]; dosage 20 g/ha) of the same molecule?
A: 90%

Q: And the “Post-emergence action against ECHCG in %” value ([4]; dosage 20 g/ha)?
A: 100%

Q: And the “Post-emergence action against DIGSA in %” value ([5]; 5 g/ha)?
A: 90%

Q: And the “Post-emergence action against DIGSA” value ([5]; 20 g/ha)?
A: 90%

Q: And the “Pre-emergence action against VIOTR in %” value ([6]; dosage 20 g/ha)?
A: 90%

Q: What about the “Pre-emergence action against VIOTR in %” value ([6]; dosage 80 g/ha) of the same molecule?
A: 100%

Q: What about the “Pre-emergence action against AMARE in %” value [7, 22] of the same molecule?
A: 100%

Q: And the “Pre-emergence action against AMARE in %” value [7, 23]?
A: 100%

Q: What about the “Pre-emergence action against PHBPU in %” value [8] of the same molecule?
A: 90%

Q: And the “Post-emergence action against VIOTR in %” value ([18]; 20 g/ha)?
A: 80%

Q: And the “Pre-emergence action against ECHCG in %” value [9]?
A: 90%

Q: What about the “Pre-emergence action against ABUTH (herbicidal activity)” value [11, 23] of the same molecule?
A: 100%

Q: And the “Pre-emergence action against ABUTH (herbicidal activity in percent)” value ([11]; dosage 20 g/ha, scored visually after 3 weeks vs untreated controls, 100% = plants have died, 0% = like control plants)?
A: 100%

Q: What about the “Post-emergence action at 20 g/ha against AMARE in %” value [12] of the same molecule?
A: 100%

Q: And the “Pre-emergence action against DIGSA in %” value ([13]; dosage 20 g/ha)?
A: 100%

Q: What about the “Pre-emergence action against DIGSA in %” value ([13]; dosage 80 g/ha) of the same molecule?
A: 100%

Q: And the “Post-emergence action against ABUTH in %” value ([14]; dosage 5 g/ha)?
A: 90%

Q: What about the “Post-emergence action against ABUTH in %” value ([14]; dosage 20 g/ha) of the same molecule?
A: 90%

Q: And the “Pre-emergence action against ALOMY (herbicidal activity)” value [15, 23]?
A: 80%

Q: What about the “Pre-emergence action against MATIN in %” value ([16]; dosage 20 g/ha) of the same molecule?
A: 100%

Q: And the “Pre-emergence action against MATIN in %” value ([16]; dosage 80 g/ha)?
A: 100%

Q: And the “Post-emergence action against VERPE in %” value ([17]; 5 g/ha)?
A: 80%

Q: And the “Post-emergence action against VERPE in %” value ([17]; 20 g/ha)?
A: 80%

Q: What about the “Pre-emergence action against VERPE in %” value ([20]; dosage 20 g/ha) of the same molecule?
A: 80%

Q: And the “Pre-emergence action against VERPE in %” value ([20]; dosage 80 g/ha)?
A: 100%
